Reference: patent US9018395B2, “Pyrazolopyridine and pyrazolopyrimidine derivatives as melanocortin-4 receptor modulators” (Université de Montréal, priority 2011, dated 2015)

Each compound was assayed against T1, wild-type human melanocortin 4 receptor (WT-hMC4R) (Homo sapiens, UniProt P32245) (assay: Cyclic AMP assay (HTRF), antagonist competition against NDP-α-MSH). Settings: HEK293T cells expressing double-tagged WT-hMC4R; cAMP accumulation; 1 hour compound then 4 nM NDP-α-MSH 30 min.
T1 construct: expressed in transfected cells; cDNA from UMR cDNA resource center
T1 sequence (P32245 whole entry): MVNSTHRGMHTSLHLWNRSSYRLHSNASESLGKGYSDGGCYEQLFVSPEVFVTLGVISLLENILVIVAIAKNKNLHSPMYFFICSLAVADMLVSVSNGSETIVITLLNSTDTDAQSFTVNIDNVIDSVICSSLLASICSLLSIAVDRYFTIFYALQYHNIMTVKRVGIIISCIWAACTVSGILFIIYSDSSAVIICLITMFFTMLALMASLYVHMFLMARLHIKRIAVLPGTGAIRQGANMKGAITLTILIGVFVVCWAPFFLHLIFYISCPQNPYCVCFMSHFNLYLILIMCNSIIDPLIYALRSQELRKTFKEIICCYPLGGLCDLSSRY
Format: cell-based
Method: Intracellular cyclic 3′-5′ adenosine monophosphate (cAMP) accumulation was measured using a competitive immunoassay based on HTRF (Homogeneous Time-Resolved Fluorescence) technology (cAMP dynamic-2, Cis-Bio).
HEK293T stable cell line expressing double-tagged WT-hMC4R construct were collected and washed in cAMP buffer (1XD-PBS pH 7.4, 0.1% glucose). 40,000 cells/well were then dispensed in 96-well plates in cAMP buffer [1XD-PBS, 1% BSA, 0.1% Glucose, 0.75 mM 3-isobutyl-1methyl-xanthine (IBMX, Sigma)] and incubated either for antagonist competition assay: 1 hour at 37° C. with various concentrations of compound [0.01 nM-10 μM] followed by 30 min incubation at 37° C. with 4 nM of NDP-α-MSH (Sigma) or for agonist assay: 1 hour at 37° C. with various concentrations of compound [0.01 nM-10 μM]. 10,000 cells were transferred in 384-well plates, lysed and incubated with cAMP labeled with the dye d2 and anti-cAMP M-Antibody labeled with Cryptate following the manufacturer's protocol.
Reading of HTRF signal was performed on Artemis TR-FRET plate reader (Cosmo Bio).
All curve fitting was conducted using non-linear regression analyses from PRISM (version 4.0c, GraphPad Inc.) and the determination of Rmax and EC50 or IC50 parameters were obtained from sigmoidal dose-response phase (variable slope) equation.
A cDNA encoding a wild-type human MC4R with a 3 tandem copies of Hemaglutinine (HA) epitote sequence from UMR cDNA resource center was modified using known techniques in the art (e.g., PCR, cloning) to fused in frame at the C-terminal a venus-Yellow Fluorescent Protein (YFP) cDNA.
The resultant cDNA was then subcloned in eukaryotic expression vector, e.g. pcDNA 3.1(+) (Invitrogen).
The double tagged WT-hMC4R was transfected in HEK293T cells with lipofectamine (Invitrogen) following the manufacturer's instructions and permanently transfected clonal cell lines were selected by resistance to the neomycin analog G418.
HEK293T stable cell line expressing wild-type human melanocortin 4 receptor (WT-hMC4R) containing an N-terminal 3xHA epitope tag and an intracellular C-terminal venus-yellow fluorescent protein (v-YFP) were maintained at 37° C. in humidified air containing 5% CO2 in Dulbecoo's modified Eagle's medium (DMEM) supplemented with 10% fetal bovine serum (FBS), 100 U/ml penicillin/streptomycin (DMEM complete/10% FBS). Cells were generally at 70%-80% confluence on the day of assay.

SMILES | IC50 [µM]
CCCCN(C/C=C/c1c(-c2ccc(OC)cc2)nn2ccc(C(=O)N(CCCC)CCCC)cc12)CCCC [Example 110] | 5 to 15
CCOC(=O)c1ccc(NC(=O)c2nn3ccc(C(=O)N(CCC(C)C)CCC(C)C)cc3c2/C=C/CN2CCCCC2)cc1 [Example 122] | 1 to 5
COc1ccc(-c2nn3ccc(C(=O)N(CCC(C)C)CCC(C)C)cc3c2/C=C/CN2CCOCC2)cc1 [Example 123] | 1 to 5
CCOC(=O)c1ccc(NC(=O)c2nn3ccc(C(=O)N(CCC(C)C)CCC(C)C)cc3c2CCCN2CCCCC2)cc1 [Example 125] | 1 to 5
CC(C)CCN(CCC(C)C)C(=O)c1ccn2nc(C(C)(C)C)c(/C=C/CN3CCCCC3)c2c1 [Example 128] | 1 to 5
COc1ccc(-c2nn3ccc(N(CCC(C)C)CCC(C)C)cc3c2CCCN2CCCCC2)cc1 [Example 131] | 5 to 15
CC(C)CCN(CCC(C)C)C(=O)c1ccn2nc(Br)c(/C=C/CN3CCCCC3)c2c1 [Example 132] | 1 to 5
CC(C)CCN(CCC(C)C)C(=O)c1ccn2nc(C(=O)Nc3ccc(C(=O)N4CCOCC4)cc3)c(CCCN3CCCCC3)c2c1 [Example 133] | 5 to 15
CC(C)CCN(CCC(C)C)C(=O)c1ccn2nc(-c3ccc(-c4noc(-c5ccccc5)n4)cc3)c(CCCN3CCCCC3)c2c1 [Example 134] | 1 to 5
CC(C)CCN(CCC(C)C)C(=O)c1ccn2nc(-c3ccc(-c4noc(C(F)(F)F)n4)cc3)c(CCCN3CCCCC3)c2c1 [Example 136] | 1 to 5
COc1ccc(Cl)cc1-c1nn2ccc(C(=O)N(CCC(C)C)CCC(C)C)cc2c1-c1ccc(CN2CCCCC2)cc1 [Example 137] | 1 to 5
CC(C)CCN(CCC(C)C)C(=O)c1ccn2nc(-c3ccc(-c4noc(Cc5ccc(F)cc5)n4)cc3)c(CCCN3CCCCC3)c2c1 [Example 140] | 5 to 15
CC(C)CCN(CCC(C)C)C(=O)c1ccn2nc(C(=O)N3CCOCC3)c(CCCN3CCCCC3)c2c1 [Example 141, N,N-diisopentyl-2-(morpholine-4-carbonyl)-3-(3-(piperidin-1-yl)propyl)pyrazolo[1,5-a]pyridine-5-carboxamide] | 5 to 15
CC(C)CCN(CCC(C)C)C(=S)c1ccn2nc(-c3ccccc3)c(CCCN3CCCCC3)c2c1 [Example 143] | 1 to 5
CC(C)CCN(CCC(C)C)Cc1ccn2nc(-c3ccccc3)c(CCCN3CCCCC3)c2c1 [Example 144] | 5 to 15
COc1ccc(-c2nn3ccc(C(=O)N(CCC(C)C)CCC(C)C)cc3c2CCCN2CCC(C)CC2)cc1 [Example 146] | 1 to 5
CCOc1ccc(-c2nn3ccc(C(=O)N(CCC(C)C)CCC(C)C)cc3c2/C=C/CN2CCOCC2)cc1 [Example 147] | 5 to 15
COc1ccc(-c2nn3ccc(C(=O)N(CCC(C)C)CCC(C)C)cc3c2CCN2CCCCC2)cc1 [Example 149, N,N-diisopentyl-2-(4-methoxyphenyl)-3-(2-(piperidin-1-yl)ethyl)pyrazolo[1,5-a]pyridine-5-carboxamide] | 5 to 15
COc1ccc(-c2nn3ccc(C(=O)N(CCC(C)C)CCC(C)C)cc3c2/C=C/CNCc2ccccc2)cc1 [Example 150] | 5 to 15
COc1ccccc1-c1nn2ccc(C(=O)N(CCC(C)C)CCC(C)C)cc2c1CCCN1CCCCC1 [Example 151] | 1 to 5
CNC/C=C/c1c(-c2ccc(OC)cc2)nn2ccc(C(=O)N(CCC(C)C)CCC(C)C)cc12 [Example 153] | 5 to 15
COc1ccc(-c2nn3ccc(C(=O)N(CCC(C)C)CCC(C)C)cc3c2CCCN)cc1 [Example 154] | 5 to 15
COc1ccc(-c2nn3ccc(C(=O)N(CCC(C)C)CCC(C)C)cc3c2CCCNCc2ccccc2)cc1 [Example 155] | 1 to 5
COc1ccc(-c2nn3ccc(C(=O)N(CCC(C)C)CCC(C)C)cc3c2CCCN2CCC2)cc1 [Example 156] | 1 to 5
CNCCCc1c(-c2ccc(OC)cc2)nn2ccc(C(=O)N(CCC(C)C)CCC(C)C)cc12 [Example 157] | 5 to 15
COc1ccc(-c2nn3ccc(C(=O)N(CCC(C)C)CCC(C)C)cc3c2/C=C/CN2CCCC(F)C2)cc1 (stereo not drawn) [Example 158] | 1 to 5
COc1ccc(-c2nn3ccc(C(=O)N(CCC(C)C)CCC(C)C)cc3c2CCCN2[C@H](C)CCC[C@@H]2C)cc1 [Example 160] | 1 to 5
COc1ccc(-c2nn3ccc(C(=O)N(CCC(C)C)CCC(C)C)cc3c2CCCN2CCCC(F)C2)cc1 (stereo not drawn) [Example 161] | 1 to 5

Now from value to compound:

IC50 [µM] | SMILES
1 to 5 | COc1ccc(-c2nn3ccc(C(=O)N(CCC4CC4)CCC4CC4)cc3c2/C=C/CN2CCCCC2)cc1 [Example 108]
1 to 5 | COc1ccc(-c2nn3ccc(C(=O)N(CCC(C)C)CCC(C)C)cc3c2C#CCN2CCCCC2)cc1 [Example 109]
1 to 5 | COc1ccc(-c2nn3ccc(C(=O)N(CCC(C)C)CCC(C)C)cc3c2CCCN2CCCCCC2)cc1 [Example 111]
1 to 5 | CCCCN(CCCC)CCCc1c(-c2ccc(OC)cc2)nn2ccc(C(=O)N(CCCC)CCCC)cc12 [Example 112]
1 to 5 | COc1ccc(Cl)cc1-c1nn2ccc(C(=O)N(CCC(C)C)CCC(C)C)cc2c1/C=C/CN1CCCCC1 [Example 113]
1 to 5 | COc1ccc(Cl)cc1-c1nn2ccc(C(=O)N(CCC(C)C)CCC(C)C)cc2c1CCCN1CCCCC1 [Example 114]
1 to 5 | CC(=O)c1ccc(-c2nn3ccc(C(=O)N(CCC(C)C)CCC(C)C)cc3c2/C=C/CN2CCOCC2)cc1 [Example 115]
1 to 5 | COc1ccc(Cl)cc1-c1nn2ccc(C(=O)N(CCC(C)C)CCC(C)C)cc2c1CCCN1CCCC1 [Example 116]
1 to 5 | COc1ccc(NC(=O)c2nn3ccc(C(=O)N(CCC(C)C)CCC(C)C)cc3c2/C=C/CN2CCCCC2)cc1 [Example 117]
1 to 5 | CC(C)CCN(CCC(C)C)C(=O)c1ccn2nc(-c3ccc(C(C)O)cc3)c(CCCN3CCOCC3)c2c1 (stereo not drawn) [Example 118]
< 0.5 | CC(C)CCN(CCC(C)C)C(=O)c1ccn2nc(C(C)(C)C)c(CCCN3CCCCC3)c2c1 [Example 119]
< 0.5 | CC(C)CCN(CCC(C)C)C(=O)c1ccn2nc(-c3ccc(C(=N)N)cc3)c(CCCN3CCCCC3)c2c1 [Example 120]
1 to 5 | CC(=O)c1ccc(-c2nn3ccc(C(=O)N(CCC(C)C)CCC(C)C)cc3c2CCCN2CCOCC2)cc1 [Example 121]
< 0.5 | COc1ccc(-c2nn3ccc(C(=O)N(CCC(C)C)CCC(C)C)cc3c2CCCN2CCOCC2)cc1 [Example 124]
< 0.5 | CC(C)CCN(CCC(C)C)C(=N)c1ccn2nc(-c3ccc(C(N)=O)cc3)c(CCCN3CCCCC3)c2c1 [Example 126]
0.5 to 1 | CC(C)CCN(CCC(C)C)C(=N)c1ccn2nc(-c3ccccc3)c(CCCN3CCCCC3)c2c1 [Example 127]
0.5 to 1 | COc1ccc(-c2nn3ccc(C(=O)N(CCC(C)C)CCC(C)C)cc3c2CCCN(C)C2CCNCC2)cc1 [Example 129]
0.5 to 1 | COc1ccc(-c2nn3ccc(C(=O)N(CCC4CC4)CCC4CC4)cc3c2CCCN2CCCCC2)cc1 [Example 130]
< 0.5 | Cc1nc(-c2ccc(-c3nn4ccc(C(=O)N(CCC(C)C)CCC(C)C)cc4c3CCCN3CCCCC3)cc2)no1 [Example 135]
< 0.5 | COc1ccc(Nc2nn3ccc(C(=O)N(CCC(C)C)CCC(C)C)cc3c2/C=C/CN2CCCCC2)cc1 [Example 138, (E)-N,N-diisopentyl-2-((4-methoxphenyl)amino)-3-(3-(piperidin-1-yl)prop-1-en-1-yl)pyrazolo[1,5-a]pyridine-5-carboxamide]
< 0.5 | CC(C)CCN(CCC(C)C)C(=O)c1ccn2nc(-c3ccc(-c4noc(-c5ccncc5)n4)cc3)c(CCCN3CCCCC3)c2c1 [Example 139]
< 0.5 | COc1ccc(Nc2nn3ccc(C(=O)N(CCC(C)C)CCC(C)C)cc3c2CCCN2CCCCC2)cc1 [Example 142, N,N-diisopentyl-2-((4-methoxyphenyl)amino)-3-(3-(piperidin-1-yl)propyl)pyrazolo[1,5-a]pyridine-5-carboxamide]
< 0.5 | COc1ccc(-c2nn3ccc(C(=O)N(CCC(C)C)CCC(C)C)cc3c2/C=C/CN2CCC(C)CC2)cc1 [Example 145]
0.5 to 1 | COc1ccc(Nc2nn3ccc(C(=O)N(CCC(C)C)CCC(C)C)cc3c2C(=O)NCCN2CCCCC2)cc1 [Example 152]
0.5 to 1 | COc1ccc(-c2nn3ccc(C(=O)N(CCC(C)C)CCC(C)C)cc3c2/C=C/CN2CCCOCC2)cc1 [Example 159]
0.5 to 1 | COc1ccc(-c2nn3ccc(C(=O)N(CCC(C)C)CCC(C)C)cc3c2CCCN2CCCOCC2)cc1 [Example 162]
